Assay results as given in ChEMBL document CHEMBL1201862, “PubChem BioAssay data set” (2004).
Active and inactive are the calls of the source.

Legend:
Streptococcus = assay: GAS UMAA2166 growth inhibition – luminescence, BacTiterGlo, counter-screen for streptokinase expression inhibitor project, dose response (AID 1915); format: functional, organism-based;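 also: potency for reduction of bacterial viability or growth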
[1] = viability loss in HEK293 cells – cell-based, plate reader, cherry-picked samples, cytotoxicity control, dose response (AID 743446); format: functional
[2] = test system: Streptococcus sp. 'group A'; assay: Streptococcus pyogenes SK(-)GAS viability under kanamycin – luminescence, BacTiterGlo, confirmation, counter-screen for streptokinase expression inhibitor project, dose response (AID 1900); format: functional, organism-based
[3] = toxicity toward HepG2 liver cells – cell-based, plate reader, cherry-pick, antagonist series, cytotoxicity control, dose response (AID 743416); format: functional
Streptokinase A = target: T1, Streptokinase A (Streptococcus pyogenes serotype M1, UniProt P10520); assay: viability-normalized secreted streptokinase activity reduction – plasminogen activation absorbance, OD405, dose response (AID 1914); format: functional, Streptococcus pyogenes M1 GAS;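 also: secreted streptokinase activity via plasminogen activation per viability signal from cell pellet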
T1 sequence (P10520 whole entry): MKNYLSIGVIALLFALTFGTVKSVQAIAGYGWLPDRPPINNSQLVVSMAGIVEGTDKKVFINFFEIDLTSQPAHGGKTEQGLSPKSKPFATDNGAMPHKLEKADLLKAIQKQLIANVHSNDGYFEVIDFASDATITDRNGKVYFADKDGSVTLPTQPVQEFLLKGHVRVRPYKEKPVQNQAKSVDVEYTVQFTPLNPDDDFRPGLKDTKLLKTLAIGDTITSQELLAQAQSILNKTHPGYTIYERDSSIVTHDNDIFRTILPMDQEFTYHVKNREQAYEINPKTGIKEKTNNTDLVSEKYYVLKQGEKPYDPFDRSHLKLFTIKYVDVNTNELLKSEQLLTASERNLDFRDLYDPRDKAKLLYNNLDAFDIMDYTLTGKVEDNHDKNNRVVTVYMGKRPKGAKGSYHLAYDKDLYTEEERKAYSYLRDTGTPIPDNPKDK

[4] = blockade of melanocortin 4 receptor signaling – cell-based, plate reader, cherry pick, counter-screen for LGR2 antagonist project, dose response (AID 743444); format: functional;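 also: transfected HEK 293 cells stimulated with alpha-MSH peptide; potency of inhibitors of the alpha-MSH evoked signal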
[5] = A549 cell cytotoxicity, dose response, cytotoxicity control, plate reader, cherry-pick, antagonist series (AID 743412); format: functional, cell-based
[6] = blockers of bursicon-stimulated LGR2 cAMP reporter – cell-based, HEK293, CRE-luciferase reporter, cherry pick, set 2, dose response (AID 743343); format: functional;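 also: transfected cells were stimulated with diluted bursicon conditioned medium after compound addition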
[7] = Luminescence-based counterscreen assay for KLF5 inhibitors: dose response cell-based high throughput screening assay to identify cytotoxic compounds using the IEC-6 intestinal epithelial cell line. [Related pubchem assays: 1700 (Primary screen.), 1834 (Confirmation screen.), 1858 (Summary AID.), 1905 (Counterscreen.)]; format: functional
[8] = target: Disintegrin and metalloproteinase domain-containing protein 17 (Homo sapiens, UniProt P78536); assay: exosite inhibitors of ADAM17, dose response, biochemical (AID 743260)
[9] = inhibition of ADAM10 peptide cleavage – biochemical, FRET peptide substrate, recombinant human ADAM10, selectivity assay for ADAM17 exosite inhibitor project, dose response (AID 743259);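 also: ADAM10 enzyme cleaving a FRET peptide substrate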
[10] = NIH3T3 cell viability loss – ATP luminescence, mouse fibroblasts, counter-screen, dose response (AID 2010); format: functional, cell-based;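 also: cells exposed to compound for about 90 hours before reading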
[11] = microbe, parasite or virus in culture; format: functional; conditions: Mycobacterium tuberculosis
INS1 = assay: INS-1E survival protection against cytokine death – cell-based, luminescence, retest, dose response (AID 449756); format: functional; conditions: Rattus norvegicus;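 also: cell death triggered by IL-1 beta plus TNF-alpha plus IFN-gamma mixture; protective hits raise ATP signal compared with cytokine alone wells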
[12] = Trypanosoma cruzi growth suppression in host cells – NIH3T3 host cells, beta-gal luminescence, confirmation (AID 2044); format: functional, cell-based;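 also: intracellular parasites grown in NIH/3T3 mouse fibroblasts as host cells; luminescent beta-galactosidase reporter signal from transgenic T. cruzi replicating inside host cells; inhibitors lower the luminescence signal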
[13] = target: Protein-tyrosine kinase 2-beta (Homo sapiens, UniProt Q14289);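 also: potency of inhibitors of PYK2 kinase phosphorylation of poly-GT substrate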
[14] = Luminescence Cell-Based Dose Confirmation HTS to Identify Inhibitors of Platelet Dense Granule Release. [Related pubchem assays: 1663 (Primary HTS), 1678 (Summary of Project)]; format: functional
[15] = target: Luciferin 4-monooxygenase (Photinus pyralis, UniProt P08659); assay: inhibition of purified Photinus pyralis luciferase – biochemical, luminescence, dose response (AID 1891)
[16] = Luminescence Cell-Based Dose Response to Identify Activators of Luciferase Translation or Activity in H4-C Neuroglioblastoma Cells. [Related pubchem assays: 1829 (Project Summary), 1814 (Primary HTS)]; format: functional
[17] = Luminescence Cell-Based Dose Confirmation HTS to Identify Activators of 5'UTR Stem-Loop Driven Alpha-Synuclein mRNA Translation in H4 Neuroglioblastoma Cells. [Related pubchem assays: 1829 (Project Summary), 1814 (Primary HTS)]; format: functional
[18] = Luminescence Cell-Based Dose Response to Identify Activators of 5'UTR Stem-Loop Driven Prion Protein mRNA Translation in H4-C Neuroglioblastoma Cells. [Related pubchem assays: 1829 (Project Summary), 1814 (Primary HTS)]; format: functional
[19] = Luminescence Cell-Based Dose Response HTS to Identify Activators of Luciferase Translation or Activity in H4 […] Cells. [Related pubchem assays: 1829 (Project Summary), 1814 (Primary HTS)]; format: functional
H4 = assay: Luminescence Cell-Based Dose Response HTS to Identify Activators of 5'UTR Stem-Loop Driven Prion Protein mRNA Translation in H4 Neuroglioblastoma Cells. [Related pubchem assays: 1829 (Project Summary), 1814 (Primary HTS)]; format: functional; conditions: Homo sapiens
[20] = Luminescence Cell-Based Dose Confirmation to Identify Activators of 5'UTR Stem-Loop Driven Alpha-Synuclein mRNA Translation in H4 Neuroglioblastoma Cells. [Related pubchem assays: 1829 (Project Summary), 1814 (Primary HTS)]; format: functional
[21] = HEK293 Cytotoxicity Assay Measured in Cell-Based System Using Plate Reader - 7071-01_Inhibitor_Dose_CherryPick_Activity_Set2.; format: functional
[22] = viability loss in THP-1 monocytes – THP-1 cells, cytotoxicity control for Vif-APOBEC3G degradation inhibitor project, dose response (AID 1117359); format: functional; conditions: THP-1
HEK293 = assay: viability loss in HEK293T cells – cell-based, ATP luminescence, cherry-pick samples, cytotoxicity control, dose response (AID 687005); format: functional; conditions: Homo sapiens;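 also: cells exposed to compound for 48 hours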
[23] = viability loss of HPDE-C7K cells – cell-based, fluorescence, HTS, primary screen (AID 431); format: functional; conditions: Homo sapiens
[24] = HPDE-C7 pancreatic duct cell viability loss – fluorescence, HTS (AID 430); format: functional, cell-based; conditions: Homo sapiens
[25] = target: Sphingosine 1-phosphate receptor 2 (Homo sapiens, UniProt O95136); assay: Dose Response Cell Based Assay for Antagonists of the S1P2 Receptor. [Related pubchem assays: 856, 736 ]; format: functional
[26] = HIV-1 Vif–A3G interaction blockers – biochemical, TR-FRET, GST-Vif 1-94, biotin-A3G peptide, dose response retest, primary screen (AID 1117319); format: functional;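 also: TR-FRET signal of purified GST-Vif binding a biotinylated A3G peptide; inhibitors lower the FRET signal by blocking Vif and A3G binding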

Luciferin 4-monooxygenase, sequence (P08659 whole entry): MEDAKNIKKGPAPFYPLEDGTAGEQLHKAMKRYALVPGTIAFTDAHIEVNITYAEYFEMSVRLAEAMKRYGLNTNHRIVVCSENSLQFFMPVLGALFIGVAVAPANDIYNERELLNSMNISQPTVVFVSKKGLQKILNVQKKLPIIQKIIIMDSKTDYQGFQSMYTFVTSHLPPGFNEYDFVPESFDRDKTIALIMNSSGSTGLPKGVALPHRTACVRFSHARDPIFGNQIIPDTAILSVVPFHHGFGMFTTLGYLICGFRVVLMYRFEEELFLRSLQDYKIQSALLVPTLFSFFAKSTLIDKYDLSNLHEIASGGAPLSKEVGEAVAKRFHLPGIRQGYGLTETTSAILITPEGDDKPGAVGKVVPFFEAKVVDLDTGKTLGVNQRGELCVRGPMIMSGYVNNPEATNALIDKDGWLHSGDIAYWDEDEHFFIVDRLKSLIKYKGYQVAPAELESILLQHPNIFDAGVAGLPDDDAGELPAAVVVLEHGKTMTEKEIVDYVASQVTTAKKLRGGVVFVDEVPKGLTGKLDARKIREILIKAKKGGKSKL
Protein-tyrosine kinase 2-beta, sequence (Q14289 whole entry): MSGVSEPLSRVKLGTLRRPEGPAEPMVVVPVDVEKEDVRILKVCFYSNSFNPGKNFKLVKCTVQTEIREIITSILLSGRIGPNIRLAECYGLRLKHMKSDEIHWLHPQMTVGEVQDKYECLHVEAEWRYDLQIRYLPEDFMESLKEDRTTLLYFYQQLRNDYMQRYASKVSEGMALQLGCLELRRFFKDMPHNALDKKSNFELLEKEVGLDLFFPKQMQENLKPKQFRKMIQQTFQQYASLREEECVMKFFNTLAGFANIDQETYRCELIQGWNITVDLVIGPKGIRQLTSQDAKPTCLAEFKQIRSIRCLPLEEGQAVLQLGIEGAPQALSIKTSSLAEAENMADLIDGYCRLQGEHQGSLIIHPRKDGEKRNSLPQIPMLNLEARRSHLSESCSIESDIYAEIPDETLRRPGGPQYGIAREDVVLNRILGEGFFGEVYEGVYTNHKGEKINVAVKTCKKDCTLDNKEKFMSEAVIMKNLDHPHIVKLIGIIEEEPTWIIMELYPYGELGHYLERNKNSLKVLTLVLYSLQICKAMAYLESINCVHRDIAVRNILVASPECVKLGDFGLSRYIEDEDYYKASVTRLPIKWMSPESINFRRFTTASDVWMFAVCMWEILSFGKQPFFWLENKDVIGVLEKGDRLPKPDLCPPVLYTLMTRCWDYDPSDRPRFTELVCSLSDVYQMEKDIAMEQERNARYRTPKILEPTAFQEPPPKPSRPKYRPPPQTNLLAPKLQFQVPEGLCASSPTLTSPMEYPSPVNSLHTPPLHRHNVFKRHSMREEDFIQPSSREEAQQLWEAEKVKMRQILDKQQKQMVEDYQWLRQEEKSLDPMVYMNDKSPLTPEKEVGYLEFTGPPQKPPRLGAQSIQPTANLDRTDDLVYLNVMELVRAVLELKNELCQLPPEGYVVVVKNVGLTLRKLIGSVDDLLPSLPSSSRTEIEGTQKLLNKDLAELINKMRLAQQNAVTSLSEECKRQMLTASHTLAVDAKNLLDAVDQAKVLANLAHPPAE
Disintegrin and metalloproteinase domain-containing protein 17, sequence (P78536 whole entry, the tested form may be a part): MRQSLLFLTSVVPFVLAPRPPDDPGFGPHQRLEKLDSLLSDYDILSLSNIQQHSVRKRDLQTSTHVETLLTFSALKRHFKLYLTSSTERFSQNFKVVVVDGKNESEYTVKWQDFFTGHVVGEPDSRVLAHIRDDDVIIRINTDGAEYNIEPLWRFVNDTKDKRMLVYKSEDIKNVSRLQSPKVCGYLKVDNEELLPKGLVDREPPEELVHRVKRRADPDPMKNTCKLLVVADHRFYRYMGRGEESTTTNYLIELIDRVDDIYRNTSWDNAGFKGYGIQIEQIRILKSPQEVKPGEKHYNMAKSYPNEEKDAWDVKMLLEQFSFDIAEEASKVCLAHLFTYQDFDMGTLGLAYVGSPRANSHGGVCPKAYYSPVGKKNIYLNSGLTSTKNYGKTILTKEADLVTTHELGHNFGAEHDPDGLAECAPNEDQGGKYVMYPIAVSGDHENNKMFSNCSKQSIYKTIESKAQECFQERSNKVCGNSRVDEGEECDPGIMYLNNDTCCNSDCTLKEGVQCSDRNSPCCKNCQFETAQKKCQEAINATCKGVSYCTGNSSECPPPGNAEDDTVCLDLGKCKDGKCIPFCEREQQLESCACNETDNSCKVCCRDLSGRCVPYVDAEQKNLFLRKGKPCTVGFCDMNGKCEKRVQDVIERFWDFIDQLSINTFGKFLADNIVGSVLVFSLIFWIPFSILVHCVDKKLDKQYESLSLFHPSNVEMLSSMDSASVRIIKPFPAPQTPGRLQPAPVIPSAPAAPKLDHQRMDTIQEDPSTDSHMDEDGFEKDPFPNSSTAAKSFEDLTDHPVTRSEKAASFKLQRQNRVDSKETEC
Sphingosine 1-phosphate receptor 2, sequence (O95136 whole entry): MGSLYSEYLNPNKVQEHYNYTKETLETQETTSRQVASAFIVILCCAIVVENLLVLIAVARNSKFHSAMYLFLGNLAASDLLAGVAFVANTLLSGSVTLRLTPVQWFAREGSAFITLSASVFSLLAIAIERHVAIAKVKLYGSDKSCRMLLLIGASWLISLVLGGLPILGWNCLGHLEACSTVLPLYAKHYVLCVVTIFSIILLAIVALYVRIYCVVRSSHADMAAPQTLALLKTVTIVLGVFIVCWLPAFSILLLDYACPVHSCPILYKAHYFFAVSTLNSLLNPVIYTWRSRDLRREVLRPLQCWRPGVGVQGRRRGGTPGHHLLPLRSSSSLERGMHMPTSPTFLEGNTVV

## CC(C)Oc1ccc(C(=O)Nc2nc3ccccc3[nH]2)cc1
Streptococcus
  EC50: 28.6 µM (active)
[1]
  AC50: 16.2 µM (active)
[2]
  EC50: 3.4 µM (active)
[3]
  AC50: 15.1 µM (active)
Streptokinase A
  EC50: > 150 µM (not active)
[4]
  AC50: 2.16 µM (active)
[5]
  AC50: 18.8 µM (active)
[6]
  AC50: 1.2 µM (active)
[7]
  IC50: 17.8 µM (not active)

## Cc1nc2ccc(NC(=O)c3ccc(S(=O)(=O)N(C)c4ccccc4)cc3)cc2s1
[8]
  IC50: > 69.5 µM (inactive)
[9]
  IC50: > 69.5 µM (inactive)

## COc1ccc(-c2cc3ccccc3oc2=O)cc1NC(=O)c1ccc([N+](=O)[O-])o1
[10]
  EC50: 9.47 µM (active)
cells
  EC50: 0.262 µM (active)
[11]
  CC50: > 40 µM (active)
INS1
  AC50: 10.7 µM (active)
[12]
  EC50: < 0.1 µM (active)

## CN1C(=O)/C(=C/c2cn(CC(=O)N3CCCCC3)c3ccccc23)c2ccccc21
[13]
  IC50: 46.6 µM (not active)
[14]
  EC50: > 112 µM (not active)
[15]
  EC50: > 112 µM (not active)

## c1ccc2c(c1)Cn1nc(Cc3nc4c(s3)CCCC4)nc1-2
[16]
  EC50: > 12 µM (not active)
[17]
  EC50: < 0.1 µM (active)
[18]
  EC50: > 12 µM (not active)
[19]
  EC50: 7.06 µM (active)
H4
  EC50: 10.3 µM (active)
[20]
  EC50: > 3.8 µM (not active)

## Cc1ccc(N(CC(=O)NCCSCc2ccco2)S(=O)(=O)c2ccc(F)cc2)cc1
[21]
  AC50: 31.9 µM (active)
[22]
  CC50: > 40 µM (active)
HEK293
  AC50: 31.9 µM (active)

## Cc1ccc2nc(C(F)(F)F)c(C#N)c(N)c2c1
[1]
  AC50: > 52 µM (inactive)
[3]
  AC50: 16 µM (active)
[23]
  EC50: 7.2 µM (active)
[24]
  EC50: > 20 µM (not active)
[5]
  AC50: 24.2 µM (active)
[6]
  AC50: 22.9 µM (active)

## COC(=O)c1sc2cc(C(F)(F)F)cnc2c1-c1ccccn1
[25]
  IC50: > 30 µM (not active)

## COC(=O)c1ccc(-n2nnnc2SCC(=O)Nc2cc(OC)ccc2OC)cc1
[26]
  IC50: > 100 µM (active)
